Measured values as given in patent US20250195415A1, “BIODEGRADABLE CONTROLLED RELEASE ANTIVIRAL AGENT IMPLANTS” (Yale University, priority 2022, published 2025).
pEC50: −log10 of the molar value. Like-named read-outs stand apart in the source and are kept apart here.

What was measured:
[1] = In vitro drug release from poly(EB-co-DO) implants with mathematical diffusion model; assay type: physicochemical; conditions: for Diffusion Coefficient: 28 % Loading, P4 (37k, 20% DO) implants
Protocol: Drug-loaded poly(EB-co-DO) implants (1 cm long, 2.4 mm diameter, 50 mg) were individually incubated in 1 mL of PBS solution (pH=7.4) containing 3% methyl-beta-cyclodextrin (M-β-CD) at 37° C. At selected time points, the buffer solution was completely replaced with fresh solution of the same composition. The collected buffer solutions, in which the implant had been continuously and completely bathed for a period of time, were flash frozen and lyophilized. High-performance liquid chromatography (HPLC) was then used to determine the representative drug loading of implants in each group.
The samples were then centrifuged at 3000 rpm for 5 min to draw out any salts and M-β-CD. The supernatant was passed through 0.22 um syringe filters before being analyzed by HPLC for drug content.
An Agilent column (883995-906, ZORBAX StableBond 300 C8, 4.6×150 mm, 5 μm) and Shimadzu HPLC system (LC-2030C) with a UV-Vis detector was used for drug quantitation. […] Initial solvent B concentration was set at 5% and allowed to increase to 100% by the 5th minute. Flow was maintained for 5 min at this level before dropping to 5% after 12 min, which was maintained until the end of the run at 13 minutes. For analysis of DTG drug release, Solvent A was 0.1% TFA in HPLC grade water, and solvent B was 100% methanol. Initial solvent B concentration was set at 55% and increased to 60% for the 6-7th minute before being brought back down to 55% for the 7-10th minute. All three drugs were detected using a UV detector at a wavelength of 240 nm. […] A volume of 45 μl was injected for each sample run.
Fick's second law of diffusion appropriately models drug transport across polymeric matrixes by proportionally relating the diffusion rate at time, t, to the concentration gradient of drug in the implant, ∂C/∂r. As shown in the equation below (1), a one-dimensional, radial release from our cylindrical implants was adopted, with a constant drug diffusion coefficient, D.
The solution for the above partial differential equation requires specification of a set of initial conditions and boundary conditions. For the initial condition (t=0), a homogenous and uniform concentration of drug throughout the implant was adopted, C=C0. A symmetry boundary condition is further applied at the center of the implant (r=0) as flux across the plane of symmetry is zero, ∂C/∂r=0. Lastly, a perfect-sink boundary condition is applied at the surface of implant (r=R), C=0. […] In vitro release, then, is determined from the mass of drug in the implant at each time point subtracted from initial mass of drug within the implant (Co*V). Lastly, the diffusion coefficient is determined by fitting the cumulative drug release profile to data from in vitro drug release experiments and minimizing root mean squared error (RMSE).

[2] = cited from earlier work
[3] = cited from earlier work; remark: listed apart in the source
[4] = Biocompatibility study, subcutaneous implantation in mice; conditions: mouse, in vivo, sc
Protocol: To examine tissue responses and in vivo degradation of these implants, unloaded 20% DO implants (P4) were used and examined histological sections and polymer properties over a period of 8 months after subcutaneous implantation. Implants of ˜10 to 15 mg were implanted in the subdermal layer of 16 mice. […] implants were extracted every two months; half of the implants were used for histological examination while the other half were used to characterize the polymer using GPC and NMR (FIGS. 15A and 15B). […] This decrease in Mw (73%) during the first four months is slightly less than observed in vitro degradation, where there was an 84% decrease in Mw after four months of incubation in PBS buffer at 37° C. […] This trend can likely be attributed to the highly degradable PDO polymeric segments of the copolymer. In terms of structural integrity of the implants, the implants appeared intact at 8 months and were firm enough to be picked up by tweezers without damage to the implant.

[5] = test system: HIV-1; assay: HIV cellular assays (HIV cell culture), antiviral potency
[6] = molecular target: T1, human mitochondrial DNA polymerase (Homo sapiens, UniProt P54098); conditions: previous studies; cited from earlier work
T1 sequence (P54098 1-1239): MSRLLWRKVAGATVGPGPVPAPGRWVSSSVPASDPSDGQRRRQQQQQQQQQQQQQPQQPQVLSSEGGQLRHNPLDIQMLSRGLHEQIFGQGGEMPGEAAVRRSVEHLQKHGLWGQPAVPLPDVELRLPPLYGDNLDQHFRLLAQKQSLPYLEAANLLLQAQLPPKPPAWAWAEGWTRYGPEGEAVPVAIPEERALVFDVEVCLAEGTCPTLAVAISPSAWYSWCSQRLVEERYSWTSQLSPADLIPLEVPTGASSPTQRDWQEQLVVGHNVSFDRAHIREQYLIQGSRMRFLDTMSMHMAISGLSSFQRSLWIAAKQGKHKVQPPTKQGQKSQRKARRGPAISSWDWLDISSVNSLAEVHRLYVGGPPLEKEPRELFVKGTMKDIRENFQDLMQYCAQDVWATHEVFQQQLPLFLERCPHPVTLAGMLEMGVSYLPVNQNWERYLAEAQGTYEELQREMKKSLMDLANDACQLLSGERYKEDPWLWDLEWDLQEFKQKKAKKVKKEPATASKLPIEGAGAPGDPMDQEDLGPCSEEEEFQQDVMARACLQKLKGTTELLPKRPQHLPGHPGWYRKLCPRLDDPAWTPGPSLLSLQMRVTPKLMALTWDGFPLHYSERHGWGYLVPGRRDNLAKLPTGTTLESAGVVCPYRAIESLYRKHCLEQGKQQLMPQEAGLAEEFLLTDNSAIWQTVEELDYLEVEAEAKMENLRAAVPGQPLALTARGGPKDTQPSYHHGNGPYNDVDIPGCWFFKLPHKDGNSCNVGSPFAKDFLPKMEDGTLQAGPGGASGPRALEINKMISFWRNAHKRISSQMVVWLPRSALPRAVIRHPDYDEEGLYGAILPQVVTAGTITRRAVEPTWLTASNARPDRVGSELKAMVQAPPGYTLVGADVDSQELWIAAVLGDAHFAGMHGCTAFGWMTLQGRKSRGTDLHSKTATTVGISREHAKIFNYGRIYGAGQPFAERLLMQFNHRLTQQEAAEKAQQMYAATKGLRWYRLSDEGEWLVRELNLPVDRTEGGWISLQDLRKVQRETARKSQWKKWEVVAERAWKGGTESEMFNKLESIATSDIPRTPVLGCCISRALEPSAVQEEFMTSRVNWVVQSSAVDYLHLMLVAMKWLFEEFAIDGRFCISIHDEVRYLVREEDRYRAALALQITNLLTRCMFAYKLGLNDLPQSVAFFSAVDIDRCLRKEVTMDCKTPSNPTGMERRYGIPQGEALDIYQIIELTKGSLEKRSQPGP

[7] = rodents; cited from earlier work
[8] = Pharmacokinetic studies for implants and NPs in Hu-PBL mice; assay type: in vivo; conditions: for concentration at 42 d / concentration at 56 d / AUC(0-t): NSG (NOD.Cg-Prkdcscid Il2rgtm1Wjl/SzJ), Hu-PBL, mouse; for concentration at 42 d / concentration at 56 d: plasma; for concentration at 42 d: intraperitoneal, day 42; for AUC(0-t): serum
Protocol: NOD.Cg-Prkdcscid Il2rgtm1 Wjl/SzJ (NSG) mice were purchased from the Jackson Laboratory (Bar Harbor, ME) and bred and maintained at Yale University (New Haven, CT) according to guidelines established by the Institutional Animal Committee. All experiments were performed according to protocols approved by the Institutional Review Board and the Institutional Animal Care and Use Committee of Yale University. NSG-Hu-PBL mice were engrafted. Briefly, 10×10^6 peripheral blood mononuclear cells (PBMC), purified by Ficoll density gradient centrifugation of healthy donor blood (obtained from the New York Blood Bank) were injected intraperitoneally in a 200 μl volume into 6- to 12-week-old NSG mice (Jackson Laboratory), using a 1 cm^3 syringe and 25-gauge needle. Mice were retro-orbitally bled to collect 70-100 μl of blood.
Two NSG mice were injected intraperitoneally (i.p.) with Compound I-NP (190 mg/kg) and EFdA (10 mg/kg) suspended in sterile saline solution. The blood samples were collected at predetermined time points from the ocular venous plexus by retro-orbital venipuncture and used for subsequent HPLC analysis.
Mice were anesthetized by intraperitoneal injection of ketamine (80 mg/kg) and xylazine (12 mg/kg) in PBS (10 ml/kg) based on individual mouse body weight. After anesthetizing, approximately 1-2 cm square of the dorsal skin was shaved using an electric hair clipper, the area was cleaned with ethanol and disinfected with betadine. Using a sterile disposable surgical blade, an incision of 4-5 mm was made through the skin. Gently, 2 cm×3 cm subcutaneous pockets were created with forceps and implants loaded with EFdA and Compound I were co-inserted at the same site. The opening was sutured using absorbable sutures followed by subcutaneous administration of 0.05 mg/kg buprenorphine. The animals were kept warm using the temperature-controlled heating pads until they regained consciousness. Toxicity was evaluated by clinical observations, eageside observations (twice daily), and body weight (at least weekly).
To determine dose-dependent serum agent concentrations, in vivo pharmacokinetics of Compound I and EFdA implants, and Compound I-NP and EFdA-NP were investigated in Hu-PBL mice. The blood samples were collected at predetermined time points from the ocular venous plexus by retro orbital venipuncture and serum was used for subsequent HPLC analysis.

[9] = test system: HIV-1; conditions: week 48, with FTC/TDF or ABC/3TC; cited from earlier work

Molecule: C[C@@H]1CCO[C@H]2Cn3cc(C(=O)NCc4ccc(F)cc4F)c(=O)c(O)c3C(=O)N12 [DTG, dolutegravir]
- Diffusion Coefficient [1]: 1.7 × 10^−9 cm^2/sec
- burst release rates compared to DEX ([1]; 28% loading, P4 implants): three-fold reduction in burst release rates
- cumulative in vitro release compared to DEX from comparable implants ([1]; 28% loading, P4 implants): slower cumulative release

Molecule: C[C@@H]1C[C@H]2[C@@H]3CCC4=CC(=O)C=C[C@]4(C)[C@@]3(F)[C@@H](O)C[C@]2(C)[C@@]1(O)C(=O)CO [DEX, dexamethasone]
- Diffusion Coefficient [1]: 3.7 × 10^−9 cm^2/sec
- log P [2]: 1.6-1.9
- diffusion coefficient in porous EVAc implants ([3]; 35% DEX loading): 2.0×10^−10 cm^2/sec
- diffusion coefficient in water ([3]; radiolabeled DEX in saline, 37° C.): 5.2×10^−6 cm^2/sec

Molecule: poly(ethylene brassylate-co-dioxanone) [poly(EB-co-DO) implants]
- tolerability after subcutaneous implantation [4]: well tolerated

Molecule: C#C[C@]1(CO)O[C@@H](n2cnc3c(N)nc(F)nc32)C[C@@H]1O [EFdA, 4′-Ethynyl-2-fluoro-2′-deoxyadenosine]
- pEC50 ([5]; Human immunodeficiency virus 1, read-out: effective concentrations (EC50)): 8.72
- IC90 / EC90 in HIV cell culture ([5]; calculated from EC50 with Hill slope of 1): 17.1 nM
- substrate for human mitochondrial DNA polymerase [6]: poor substrate
- time of sustained levels of agent from implants [7]: up to 6 months
- increase in serum concentration ([8]; NPs, day 14-post infection): 21%
- decline in serum concentration after day 21 ([8]; NPs, over the next three weeks): two-fold decline
- clearance ([8]; NPs, single i.p. dose, co-administered): 1.2 mL/h/kg
- concentration at 42 d ([8]; NPs, read-out: plasma level maintained at end of experiment): ≥ 4000 ng/mL
- concentration at 42 d ([8]; NPs, read-out: plasma level maintained at end of experiment (molar)): ≥ 13 µM
- concentration at 56 d ([8]; subcutaneous, implants, day 56, read-out: sustained plasma concentration at end of experiment): 7500 ng/mL
- concentration at 56 d ([8]; subcutaneous, implants, day 56, read-out: sustained plasma concentration at end of experiment (molar)): 25 µM
- AUC(0-t) ([8]; ip, NPs, single i.p. dose, co-administered): 6980 µg·h/mL
- AUC(0-t) ([8]; subcutaneous, co-implanted poly(PDL-co-DO) implants, 56 d): 9130 µg·h/mL
- serum level fold higher than the cellular EC50 ([8]; implants, day 14): 11,000 fold
- fold decrease in serum concentration compared to day 28 ([8]; implants, day 35 post-implantation): 5 fold
- plasma concentration fold above the EC90 ([8]; implants, day 56): ~1600 fold

Molecule: Cn1c(Cn2ccc(C(F)(F)F)c(Oc3cc(Cl)cc(C#N)c3)c2=O)n[nH]c1=O [doravirine]
- patients with plasma HIV-1 RNA of less than 50 copies/mL [9]: 84%
